Where a name gives a salt, the structure may show the parent alone. Read-outs that look alike come from different tables or passages of the source. Square brackets hold non-standard residues; d marks the D form. Peptide text beside a SMILES is read from it. 1Nal = N[C@@H](Cc1cccc2ccccc12)C(=O)O; Dmt = Cc1cc(O)cc(C)c1C[C@H](N)C(=O)O
Legend:
mice = settings: sc, ref [27]; cited from earlier work
MOP receptor [1] = settings: guinea-pig small intestinal myenteric plexus muscle preparation; ref [18]; cited from earlier work
DOP receptor [2] = settings: inhibition of forskolin-stimulated cAMP formation, HEK cells stably expressing DOP receptor, cited from earlier work
KOP receptor [3] = settings: in vitro; ref [18]; cited from earlier work
male Sprague–Dawley rats [4] = assay: GI motility, charcoal meal test, icv dosing; type: in vivo, rat; settings: for Mean (± SEM) % small intestinal transit (%SIT): n = 6, vehicle 77.3 (± 1.9) %
Method: One hour later, the rats were euthanised and the intestine was collected for measurement of the following: (i) the distance from the pylorus to the front edge of the charcoal meal; (ii) the distance between the pylorus and the distal edge of the ileum. The intestinal transit index was determined by dividing measurement (i) by measurement (ii).

[5] = Metabolic stability using rat liver microsomes
male Sprague–Dawley rats [6] = assay: Respiratory function by whole body plethysmography, icv dosing; type: in vivo, rat
Method: After acclimatisation for 30–60 min, respiratory parameters were recorded for 45 min pre-dosing (three 15 min cycles) and for 2 h post-dosing (eight 15 min cycles). In each cycle, rats breathed normal air for 1 min, followed by a hypercapnic gas mixture (8% CO2, 21% O2 and 71% N2) for 5 min and then a 9 min recovery period breathing normal air. Respiratory parameters recorded by the blinded tester (M.Z.I.) included minute ventilation (MV), respiratory frequency (RF) and tidal volume (Tv) using the BioSystem XA software. The baseline was calculated as the mean difference in MV (ΔMV), RF (ΔRF) and Tv (ΔTv) during the pre-dosing exposure to normal air and the hypercapnic gas mixture.

male Sprague–Dawley rats [7] = assay: Inhibition of castor oil-induced diarrhoea, icv dosing; type: in vivo, rat; settings: for Mean (± SEM) %AUC of % rats with diarrhoea (% of vehicle control): 8 h, vehicle set at 100%; for Cumulative stool weight-area under the curve (CSW-AUC): at 4 h, vehicle 18.3 (± 1.1) g.h
Method: After an overnight fast (16 h), the pre-dosing stool consistency of individual rats was recorded. […] The weight and consistency of faeces were recorded pre-dose and hourly for 8 h post-dosing for individual animals. The scoring criteria for faeces consistency were as follows: 0 = normal faeces, 1 = well-shaped wet faeces, 2 = shapeless faeces, 3 = shapeless faeces with large amounts of liquid. A score of ≥ 2 for both weight and consistency was defined as diarrhoea.
(§1) Data are presented as mean ± standard error of mean (SEM). One-way analysis of variance was used for analysing the following data: ΔLatency-AUC of warm water tail flick data (Fig. 2B, D); % Small intestinal transit of charcoal meal data and % change of transit relative to vehicle (Fig. 3A, B); AUC of % rats with diarrhoea (% of vehicle control) (Fig. 4B), Cumulative stool weight difference from vehicle (4 h) (Fig. 4D); ΔMV-AUC, ΔRF-AUC and ΔTv-AUC (Fig. 6A–F). Two-way analysis of variance was used for the following data: MV, RF and Tv data for 2 h WPB test (Fig. 5A–F). The analyses were implemented in GraphPad Prism v9.0.0 (GraphPad Software, Inc., La Jolla, CA USA). Dunnett's multiple comparison test was used for post hoc analysis of all the data. For individual animals in the tail flick test, the increase in tail flick latency above baseline (ΔLatency) was calculated for every assessment time point, and the areas under the ΔLatency versus time curve (AUC) values were estimated using trapezoidal integration as using GraphPad™ Prism v9.0.0. For the castor oil-induced diarrhoea test, the percentage of rats with diarrhoea (%AD) was determined for each time point and plotted against time for individual animals. The areas under the curve (%AD-AUC) values were calculated using GraphPad™ Prism v9.0.0. A value of p ≤ 0.05 was the statistical significance criterion. For one-way ANOVA, F values are expressed as Fdf of treatment, residual. For two-way ANOVA, F values are expressed as Fdf of treatment, time, interaction/residual.

DOP receptor [8] = settings: in vitro; ref [18]; cited from earlier work
DOP receptor [9] = settings: mean ± SEM; ref [18]; cited from earlier work
Description: (§2) By comparison, CYX-5 is a truncated analogue of EM-2 (H-Dmt-Pro-Nal-NH2; Nal: 3-(1-naphthyl)-L-alanine) (Fig. 1). In vitro, CYX-5, like CYX-6, was a G-protein biassed ligand at MOP, DOP and KOP receptors. […] In the forskolin-stimulated cAMP assay in HEK-cells expressing murine MOP, D ...

MOP receptor [10] = settings: mean ± SEM; ref [18]; cited from earlier work
Description: as §2

MOP receptor [11] = settings: inhibition of forskolin-stimulated cAMP formation, HEK cells stably expressing MOP receptor; ref Cai et al. [18]; cited from earlier work
KOP receptor [12] = settings: inhibition of forskolin-stimulated cAMP formation, HEK cells stably expressing KOP receptor; ref Cai et al. [18]; cited from earlier work
MOP receptor [13] = settings: in vitro; ref [18]; cited from earlier work
male Sprague–Dawley rats [14] = assay: Warm-water tail flick test (antinociception), icv dosing; type: in vivo, rat; settings: for Mean (± SEM) peak tail flick latency: baseline latency 2.0–3.5 s; for Mean (± SEM) ΔLatency-AUC: vehicle 0.8 (± 0.3) s.h
Method: To assess a role for opioid receptors in mediating antinociception, rats were dosed with naloxone (10 mg/kg; sc) 10 min prior icv dosing with CYX-5 at the highest dose tolerated (20 nmol).
as §1

male Sprague–Dawley rats [15] = assay: Tolerability / neuro-excitatory clinical signs after icv dosing
male Sprague–Dawley rats [16] = settings: cited from earlier work
male Sprague–Dawley rats [17] = settings: cited from earlier work; remark: listed apart in the source
male Sprague–Dawley rats [18] = settings: cited from earlier work; for Antinociception, warm water tail flick test: icv, male Sprague–Dawley rats, ref Imam et al. [19]
male Sprague–Dawley rats [19] = settings: cited from earlier work; remark: listed apart in the source
[20] = icv, male Sprague–Dawley rats, √/X not defined
[21] = icv, male Sprague–Dawley rats, ref Imam et al. [19], Kuo et al. [23]
[22] = icv 100 nmol, n = 6, biphasic profile, data re-used, ref [19]
[23] = icv 100 nmol, data re-used, ref [19]

CN1CC[C@]23c4c5ccc(O)c4O[C@H]2C(=O)CC[C@@]3(OCCCc2ccccc2)[C@H]1C5 [14-O-phenylpropyloxymorphone]
Fold less potent for inhibition of GI transit compared with antinociception (mice): 2.4 fold

Cc1cc(O)cc(C)c1C[C@H](N)C(=O)N1CCC[C@H]1C(=O)N[C@@H](Cc1cccc2ccccc12)C(N)=O [CYX-5, H-Dmt-Pro-Nal-NH2] (H-[Dmt]-Pro-[1Nal]-NH2)
MOP receptor agonism ex vivo (MOP receptor [1]): potent MOP receptor agonism | In vitro agonist or antagonist activity, DOP receptor (DOP receptor [2]; ref Cai et al. [18]): Antagonist^a | Recruitment of β-arrestin2 at KOP receptor (KOP receptor [3]): lack of recruitment | Mean (± SEM) % small intestinal transit (%SIT) (male Sprague–Dawley rats [4]; icv 3 nmol): 68.7 (± 2.7) % | Mean (± SEM) % small intestinal transit (%SIT) (male Sprague–Dawley rats [4]; icv 10 nmol): 64.8 (± 6.8) % | Mean (± SEM) % small intestinal transit (%SIT) (male Sprague–Dawley rats [4]; icv 20 nmol): 64.4 (± 3.4) % | Constipation, inhibition of GI motility (male Sprague–Dawley rats [4]; [20]): √ | half-life [5]: 57.6 min | Effect on minute ventilation (male Sprague–Dawley rats [6]; icv 20 nmol, n = 6, hypercapnic conditions (8% CO2), awake rats): significant stimulatory effect | Effect on tidal volume (male Sprague–Dawley rats [6]; icv 20 nmol, n = 6, hypercapnic gas mixture): significant increase | Effect on respiratory frequency (male Sprague–Dawley rats [6]; icv 20 nmol, n = 6, normal air and hypercapnic gas exposure): insignificant | Respiratory function, stimulation of minute ventilation (male Sprague–Dawley rats [6]; icv, hypercapnic conditions, awake freely moving rats, √/X not defined): √ | Mean (± SEM) %AUC of % rats with diarrhoea (% of vehicle control) (male Sprague–Dawley rats [7]; icv 3 nmol, n = 7): 72.6 (± 10.8) %AD.h | Cumulative stool weight-area under the curve (CSW-AUC) (male Sprague–Dawley rats [7]; icv 3 nmol): 11.7 (± 1.5) g.h | Mean (± SEM) %AUC of % rats with diarrhoea (% of vehicle control) (male Sprague–Dawley rats [7]; icv 10 nmol, n = 6): 78.5 (± 7.6) %AD.h | Cumulative stool weight-area under the curve (CSW-AUC) (male Sprague–Dawley rats [7]; icv 10 nmol): 13.4 (± 4.1) g.h | Mean (± SEM) %AUC of % rats with diarrhoea (% of vehicle control) (male Sprague–Dawley rats [7]; icv 20 nmol, n = 6): 68.4 (± 2.6) %AD.h | Cumulative stool weight-area under the curve (CSW-AUC) (male Sprague–Dawley rats [7]; icv 20 nmol): 2.5 (± 0.9) g.h | Time to develop diarrhoea in all animals (male Sprague–Dawley rats [7]; icv 3, 10 and 20 nmol, oral castor oil 2.5 ml, vehicle 3 h): 5 h | Recruitment of β-arrestin2 at DOP receptor (DOP receptor [8]): lack of recruitment | Ki (DOP receptor [9]): 121 ± 10.2 nM | Ki (MOP receptor [10]): 0.7 ± 0.08 nM | In vitro agonist or antagonist activity, MOP receptor (MOP receptor [11]): Agonist^a | In vitro agonist or antagonist activity, KOP receptor (KOP receptor [12]): Agonist^a | Recruitment of β-arrestin2 at MOP receptor (MOP receptor [13]): lack of recruitment | Mean (± SEM) peak tail flick latency (male Sprague–Dawley rats [14]; icv 3 nmol, n = 6, rats): 5.2 (± 0.6) s | Mean (± SEM) ΔLatency-AUC (male Sprague–Dawley rats [14]; icv 3 nmol, n = 6): 3.2 (± 0.9) s.h | Mean (± SEM) peak tail flick latency (male Sprague–Dawley rats [14]; icv 10 nmol, n = 6, rats): 4.0 (± 0.3) s | Mean (± SEM) ΔLatency-AUC (male Sprague–Dawley rats [14]; icv 10 nmol, n = 6): 2.1 (± 0.5) s.h | Antinociception (tail flick), in words (male Sprague–Dawley rats [14]; icv 20 nmol, highest dose tolerated): moderate antinociception | Mean (± SEM) peak tail flick latency (male Sprague–Dawley rats [14]; icv 20 nmol, n = 7, rats): 5.5 (± 0.5) s | Mean (± SEM) ΔLatency-AUC (male Sprague–Dawley rats [14]; icv 20 nmol, n = 7, significantly different from vehicle): 4.8 (± 0.6) s.h | Mean time to peak effect (tail flick) (male Sprague–Dawley rats [14]; icv 3, 10 and 20 nmol, post-dose): 1 h | Antinociception, warm water tail flick test (male Sprague–Dawley rats [14]; [20]): √ | Effect of naloxone pre-treatment on antinociception (male Sprague–Dawley rats [14]; naloxone 10 mg/kg sc 10 min prior to icv 20 nmol): completely attenuated | Duration of postural abnormalities (flattened torso, splayed legs, ataxia) (male Sprague–Dawley rats [15]; icv 20 nmol): up to 90 min | Rats with mild, intermittent, transient clinical signs of neuroexcitation (male Sprague–Dawley rats [15]; icv 20 nmol): ~ 50% | Maximum tolerated dose, icv (male Sprague–Dawley rats [15]; pilot study, rats): 20 nmol | Side effects at 30 nmol icv (male Sprague–Dawley rats [15]; preliminary experiment, icv 30 nmol, convulsions, barrel roll, wet-dog shakes, excessive alertness): pronounced neuro-excitatory side effects

CN1CC[C@]23c4c5ccc(O)c4O[C@H]2[C@@H](O)C=C[C@H]3[C@H]1C5 [morphine, morphine hydrochloride]
Effect on respiratory frequency (male Sprague–Dawley rats [16]; icv 100 nmol, n = 6, hypercapnic gas mixture, relative to vehicle, data re-used, ref [19]): reduced respiratory frequency significantly | Effect on minute ventilation (male Sprague–Dawley rats [16]; icv 100 nmol, n = 6, hypercapnic gas mixture, time of peak effect, data re-used, ref [19]): reduced minute ventilation | Respiratory function, depression of minute ventilation (male Sprague–Dawley rats [16]; icv, hypercapnic conditions, awake rats, ref Imam et al. [19], Kuo et al. [23]): √^b,d | Mean (± SEM) % small intestinal transit (%SIT) (male Sprague–Dawley rats [17]; icv 100 nmol, n = 12, data re-used, ref [19]): 22.0 (± 3.4) % | Constipation, inhibition of GI motility (male Sprague–Dawley rats [17]; [21]): √^b,d | In vitro agonist or antagonist activity, DOP receptor (DOP receptor [2]; ref Kuo et al. [36]): Agonist^c | First antinociceptive peak tail flick latency, mean (± SEM) (male Sprague–Dawley rats [18]; [22]): 8.9 (± 0.5) s | Second antinociceptive peak tail flick latency, mean (± SEM) (male Sprague–Dawley rats [18]; [22]): 10.0 (± 0.0) s | Antinociception (tail flick), in words (male Sprague–Dawley rats [18]; [23]): pronounced antinociception | Mean time to first peak effect (tail flick) (male Sprague–Dawley rats [18]; [23]): 0.75 h | Mean time to second peak effect (tail flick) (male Sprague–Dawley rats [18]; [23]): 1.5 h | Antinociception, warm water tail flick test (male Sprague–Dawley rats [18]; Kuo et al. [23]): √^b,d | Time by which animals developed diarrhoea (male Sprague–Dawley rats [19]; icv 100 nmol, oral castor oil, data re-used, ref [19]): 7 h | Constipation, inhibition of castor oil-induced diarrhoea (male Sprague–Dawley rats [19]; [21]): √^b,d

H-Dmt-Pro-Tmp-Tmp-NH2 [CYX-6]
Respiratory function, stimulation of minute ventilation (male Sprague–Dawley rats [16]; icv, hypercapnic conditions, awake rats, ref Imam et al. [19]): √^b | In vitro agonist or antagonist activity, DOP receptor (DOP receptor [2]; ref Cai et al. [18]): Antagonist^a | Antinociception, warm water tail flick test (male Sprague–Dawley rats [18]): √^b | In vitro agonist or antagonist activity, MOP receptor (MOP receptor [11]): Agonist^a | In vitro agonist or antagonist activity, KOP receptor (KOP receptor [12]): Antagonist^a

From publication PMC10227131 (Pharmacological Reports, 2023)
